The text below walks through data of patent publication US11286304B2, “Anti-galectin-7 antibody, kit comprising the same, and uses thereof” (Academia Sinica, priority 2018, dated 2022).

Holding throughout (format): cell-based, human
The subject of assay [1] is galectin-7. Nature of the assay: Galectin-7 protein in lung cancer cells (immunoblot). To be noted: for effect on fluvastatin-induced galectin-7 upregulation: co-administered with fluvastatin, 200 μM Mevalonate, 20 μM GGPP, 20 μM FPP. The protocol:
(§1) CL83, CL141, CL100, CL25, PC9, PC9-IR, CL97, H1975, and H3255 cells were obtained from Dr. Pan-Chyr Yang (National Taiwan University, Taiwan), and A-431 (ATCC© CRL-1555™), H1650 ((ATCC© CRL-5883™)) and HCC827 ((ATCC© CRL-2868™)) cells were purchased from ATCC. Cells were cultured in RPMI 1640 medium supplemented with 10% fetal bovine serum (Gibco). The mRNA of A549, H23, H226BR, H358, H460, H661, H928, H1299, H1435, and H1437 cells were produced by conventional method, such as the method as described herein.
Lysates from different lung cancer cell samples were prepared and aliquots containing 30 μg of protein from each lysate were analyzed using either 10% or 12% sodium dodecyl sulfate-polyacrylamide gel electrophoresis (SDS-PAGE). A polyvinylidene difluoride Immobilon H-bond membrane (EMD Millipore) was used for immunoblot analysis. The primary antibody against galectin-7 (Novagen) was used.
On the technique in general: A western blot detects proteins with antibodies after separation by electrophoresis.

Assay [2] relates to IL-6. The experiment in a line: IL-6 production by keratinocytes (ELISA). The settings on record: for IL-6 production induced by IL-17A: galectin-7 knockdown keratinocytes, data not shown; for IL-6 production: HaCaT and HEKn cells subjected to immune stimuli, ELISA. The protocol:
(§2) To measure the concentrations of proinflammatory cytokines secreted by keratinocytes, 2×10^4 cells were seeded in 96-well plates. Cells were incubated for 24 hours and then treated with 50 μg/ml LPS, 100 ng/ml human TNF-α, 100 or 200 ng/ml human IL-17A, 200 ng/ml human IL-22, 100 ng/ml human IL-23, or 50 ng/ml IFN-γ at 37° C. for 48 hours. In addition, the MEK inhibitor PD98059 was added along with stimulation by LPS or IL-17A (48 hours). The supernatants were then collected and analyzed by ELISAs, which were performed using a specific combination of paired antibodies (capture and detection antibodies).
(In an ELISA, binding on a coated surface is turned into a signal by an enzyme label.)

The test system of assay [3] is IL-8. The experiment in a line: IL-8 production by keratinocytes (ELISA). The settings on record: for IL-8 production induced by IL-17A: galectin-7 knockdown keratinocytes, data not shown; for IL-8 production: HaCaT and HEKn cells subjected to immune stimuli, ELISA. On the procedure: as §2
Assay [4] concerns galectin-7. Nature of the assay: Galectin-7 expression in keratinocytes (real-time PCR, immunoblot). The settings on record: for galectin-7 expression: keratinocytes, other statin drugs, data not shown; for galectin-7 mRNA and protein expression: 24 hours, methylprednisolone 10.6 μM, tobramycin 8.6 μM, fluvastatin 9.2 μM, pempidine 13 μM; for galectin-7 protein expression: treated with cytokines for 2 days, immunoblot. On the procedure:
Human keratinocyte cell line HaCaT was maintained at 37° C. in Dulbecco's modified Eagle's medium (DMEM) supplemented with 10% of fetal bovine serum (FBS), 2 mM glutamine, 100 U/ml penicillin and 100 μg/ml streptomycin. Short hairpin RNA (shRNA) reagents were obtained from the National RNAi Core Facility located at the Institute of Molecular Biology and Genomic Research Center, Academia Sinica, supported by the National Core Facility Program for Biotechnology Grants of NSC. Four shRNAs with clone IDs of TRCN0000057393, TRCN0000057394, TRCN0000057395, and TRCN0000057396 were used to generate stable galectin-7 knockdown HaCaT clones. HaCaT cells were infected with one of the four shRNA-expressing lentiviruses and puromycin was employed to select stable cell clones after 3 days of infection. After puromycin selection, four individual pooled clones were cultured in puromycin-free medium for 2 weeks before further analysis.
Primary neonatal human epithelial keratinocytes, HEKn cells, were purchased from Gibco. HEKn cells were cultured at 37° C. in keratinocyte serum-free medium (K-SFM) supplemented with 30 μg/ml bovine pituitary extract and 5 ng/ml recombinant human epidermal growth factor from the same company. Compared with HaCaT cells, HEKn cells have a limited proliferation ability and are not suitable for establishing shRNA-based stable knockdown cells; therefore, a small interfering RNA (siRNA) oligo was used to transiently knock down the expression of galectin-7. The Silencer® Select siRNAs were purchased from Invitrogen, including negative control #1 and a predesigned siRNA targeting human galectin-7 (Catalog number: s230574, which targets the sequence of exon 3 of NM_002307.3). Thirty picomoles of siRNAs were delivered into HEKn cells in a 6-well plate setup by means of Lipofectamine 2000.
Cells were harvested and lysed in RIPA lysis buffer containing 1% of Triton X-100 and a protease inhibitor cocktail, and total protein concentrations were measured with a protein assay kit. Proteins in the samples of the lysates with the same amounts of total protein were separated by sodium dodecyl sulfate polyacrylamide gel electrophoresis (SDS-PAGE) and analyzed by immunoblotting. Primary antibodies against phospho-Erk1 (pT202)/Erk2 (pT185), Erk1, Erk2, NF-κB p65, phospho-NF-κB p65 (pS536), IκBα, phospho-IκBα pS32, β-actin, or GAPDH were applied to detect the corresponding proteins. Horseradish peroxidase (HRP)-conjugated secondary antibodies against mouse, rabbit, or goat IgG were then incubated with the membranes, and proteins were visualized by chemiluminescence according to the manufacturer's instructions. Protein quantification was performed by software.
Total RNAs (including mRNA and miRNA) were extracted from cultured cells or mouse ears with the TRIzol Reagent. For measurement of human galectin-7, IL-6, IL-8, IL-17A, and IFN-γ levels, mRNAs were reverse-transcribed into cDNA by means of the cDNA synthesis kit, and real-time PCR was carried out with specific probes accompanied with primers targeting humangalectin-7, IL-6, and IL-8 according to the manufacturer's instructions.
Background: Quantitative PCR measures a nucleic acid by following its amplification.

For assay [5], the system named is S100A7. Nature of the assay: S100A7 mRNA expression in HaCaT cells (real-time PCR). To be noted: 24 hours, methylprednisolone 10.6 μM, tobramycin 8.6 μM, fluvastatin 9.2 μM, pempidine 13 μM.
Assay [6] has as its system galectin-7. The experiment in a line: Galectin-7 mRNA in lung cancer cell lines (qPCR). To be noted: CL100 and PC9-IR cells, 24 hours; methylprednisolone 10.6 μM, tobramycin 8.6 μM, fluvastatin 9.2 μM, pempidine 13 μM. The protocol:
as §1
Total RNA from each lung cancer cell clone was extracted using TRIzol Reagent (Invitrogen), and cDNA for real-time PCR was generated using the iScript cDNA synthesis kit (Bio-Rad). Quantitative real-time PCR was performed using TaqMan buffer (Roche), and the primers and probes were designed using the Roche Universal Library (UPL). […] For real-time PCR, the CFX Connect Real-Time PCR System (Bio-Rad) was used, and the data were analyzed using CFX Manager software, in which the ΔΔCt method was employed to normalize the data against the endogenous control GAPDH.

Assay [7] concerns miR-146a. The experiment in a line: miR-146a expression in keratinocytes (real-time PCR). To be noted: HaCaT and HEKn cells treated with IL-17A. The protocol:
For miR-146a quantification, total RNA samples were converted to cDNA, and real-time PCR was conducted with specific primers targeting miR-146a. Human GAPDH and U6 snRNA were selected as internal controls for normalization of the levels of mRNAs and miRNAs, respectively. Relative levels of mRNAs and miRNAs were calculated, and fold changes were obtained by the ΔΔCt method and compared with vector-only control cells.

On to `CC(C)=CCC/C(C)=C/CC/C(C)=C/COP(=O)(O)OP(=O)(O)O` [FPP], for which the “effect on fluvastatin-induced galectin-7 upregulation” value in assay [1] (PC9-IR cells, 24 hours) is “blocked”.

With `CC(C)=CCCC(C)=CCCC(C)=CCSc1ccccc1C(=O)O` [FTS, farnesyl thiosalicylic acid], in assay [1] (PC9-IR cells, 1 μM fluvastatin, FTS, 24 hours), the galectin-7 expression result was “increased galectin-7 expression”.

Regarding `CC(C)=CCC/C(C)=C/CC/C(C)=C/CC/C(C)=C/COP(=O)(O)OP(=O)(O)O` [GGPP], the “effect on fluvastatin-induced galectin-7 upregulation” value in assay [1] (PC9-IR cells, 24 hours) is on record as “blocked”.

Regarding `COc1cccc(-c2cc(=O)c3ccccc3o2)c1N` [PD98059], in assay [2], the “IL-6 production induced by IL-17A” value is given as “significantly blocked”. Moreover, the “IL-8 production induced by IL-17A” value in assay [3] is reported as “significantly blocked”.

With `S=C(S)N1CCCC1` [PDTC], in assay [2], the “IL-6 production induced by IL-17A” value is recorded as “not blocked”. Also, in assay [3], the “IL-8 production induced by IL-17A” value is listed as “not blocked”.

For the compound `C[S+]([O-])c1ccc(-c2nc(-c3ccncc3)c(-c3ccc(F)cc3)[nH]2)cc1` (stereo not drawn) [SB203580], the “IL-6 production induced by IL-17A” value in assay [2] is “not blocked”. Further, the “IL-8 production induced by IL-17A” value in assay [3] is “not blocked”.

In the case of `CC(C)c1c(C(=O)Nc2ccccc2)c(-c2ccccc2)c(-c2ccc(F)cc2)n1CC[C@@H](O)C[C@@H](O)CC(=O)O` [atorvastatin], the galectin-7 expression entry in assay [4] is recorded as “induced galectin-7 expression”.

For `COc1cc2ncnc(Nc3ccc(F)c(Cl)c3)c2cc1OCCCN1CCOCC1` [gefitinib], the “galectin-7 level (endogenous)” value in assay [1] (CL25 and CL100 cells, 10 μM, 24 hours) was “downregulated”. The “level of ectopically overexpressed galectin-7” value in assay [1] (CL83, CL141 and PC9 cells, 10 μM, 24 hours) is recorded as “also downregulated”.

Take `CC(O)(CCO)CC(=O)O` (stereo not drawn) [mevalonate]: the “effect on statin-induced upregulation of galectin-7” value in assay [1] (PC9-IR cells, 200 μM mevalonate with 10 μM statins, 24 hours) is reported as “reversed”. In addition, the “effect on fluvastatin-induced galectin-7 upregulation” value in assay [1] (PC9-IR cells, 24 hours) is on record as “reversed”.

As to `CC[C@H](C)C(=O)O[C@H]1CCC=C2C=C[C@H](C)[C@H](CC[C@@H]3C[C@@H](O)CC(=O)O3)[C@H]21` [mevastatin], in assay [4], the galectin-7 expression result is reported as “induced galectin-7 expression”.

Consider `CN1C(C)(C)CCCC1(C)C` [pempidine], for which the “galectin-7 mRNA and protein expression” value in assay [4] (HaCaT cells) was “only fluvastatin induced”. The “S100A7 mRNA expression” value in assay [5] is given as “only fluvastatin”. Also, in assay [6], the “galectin-7 expression (LGLAS7 mRNA)” value is given as “only fluvastatin induced”.

As to `O=C(O)C[C@H](O)C[C@H](O)/C=C/c1c(C2CC2)nc2ccccc2c1-c1ccc(F)cc1` [pitavastatin], the galectin-7 expression entry in assay [4] was “induced galectin-7 expression”.

As for `NC[C@H]1O[C@H](O[C@H]2[C@H](O)[C@@H](O[C@H]3O[C@H](CO)[C@@H](O)[C@H](N)[C@H]3O)[C@H](N)C[C@@H]2N)[C@H](N)C[C@@H]1O` [tobramycin], the “galectin-7 mRNA and protein expression” value in assay [4] (HaCaT cells) is given as “only fluvastatin induced”. Moreover, the “S100A7 mRNA expression” value in assay [5] is “only fluvastatin”. Moreover, in assay [6], the “galectin-7 expression (LGLAS7 mRNA)” value was “only fluvastatin induced”.

Turning to “IFN-γ: interferon (IFN)-γ, immune stimulus”, in assay [4] (HaCaT cells), the galectin-7 protein expression result is “modest effects”. Moreover, in assay [2], the IL-6 production entry was “only IL-17A (FIG. 2), TNF-α, and LPS (data not shown) induced”. The IL-8 production result in assay [3] was “only IL-17A (FIG. 2), TNF-α, and LPS (data not shown) induced”.

As to “IL-17A: cytokine known to promote psoriatic inflammation”, the galectin-7 protein expression result in assay [4] (HEKn cells) and in assay [4] (HaCaT cells) was “reduced” in each case. Also, the IL-6 production result in assay [2] was “induced”. Moreover, in assay [3], the IL-8 production result was “induced”. Further, in assay [7], the miR-146a expression result is given as “induced miR-146a expression”.

Take IL-21: immune stimulus: the IL-6 production entry in assay [2] was “only IL-17A (FIG. 2), TNF-α, and LPS (data not shown) induced”. The IL-8 production entry in assay [3] was “only IL-17A (FIG. 2), TNF-α, and LPS (data not shown) induced”.

As to TNF-α, the galectin-7 protein expression result in assay [4] (HaCaT cells) is “significantly reduced”. The IL-6 production result in assay [2] is reported as “induced”. The IL-8 production entry in assay [3] is “induced”.

With “epidermal growth factor (EGF): epidermal growth factor, activates EGFR signaling”, the galectin-7 expression result in assay [1] (CL25, CL100, PC9 and PC9-IR cells starved overnight, 10 ng/ml EGF) is given as “transiently upregulated”.
